According to the supplement of paper PMC10883282:
± gives the standard deviation of the averaged measurements.

How the values were obtained:
Test in all cases: relative viability vs DMSO control (72 h) (fraction); higher = more viable cells
G401 = test system: G401
Summary of the method: (§1)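 Relative viability is percent growth read by ATPLite and averaged over up to triplicate wells. Sarcoma cells were seeded in 384-well plates to reach 80–90% confluence and given 2.5 µl of serially diluted compound after 24 h, from source plates of 10 mM to 0.0002 mM. Incubation lasted 72 h at 37 °C, 5% CO2, with 0.1% DMSO vehicle and a 5 µM positive control, and the data were rescaled so 1 equals full and 0 equals none.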

HT1080 = test system: HT1080
Summary of the method: as §1

KHOS-240S = test system: KHOS-240S
Summary of the method: as §1

MES-SA = test system: MES-SA
Summary of the method: as §1

RD-ES = test system: RD-ES
Summary of the method: as §1

RD = test system: RD
Summary of the method: as §1

SK-ES-1 = test system: SK-ES-1
Summary of the method: as §1

SK-LMS-1 = test system: SK-LMS-1
Summary of the method: as §1

SW1353 = test system: SW1353
Summary of the method: as §1

SW982 = test system: SW982
Summary of the method: as §1

SYO-1 = test system: SYO-1
Summary of the method: as §1

VA-ES-BJ = test system: VA-ES-BJ
Summary of the method: as §1

O=C1CCc2c(Oc3ccc4c(c3)[C@@H]3[C@H](O4)[C@H]3c3nc4cc(C(F)(F)F)ccc4[nH]3)ccnc2N1 [Lifirafenib]
relative viability (G401; 0.00017 µM): 1.02 ± 0.012 | relative viability (G401; 0.00051 µM): 1.03 ± 0.037 | relative viability (G401; 0.00152 µM): 1.03 ± 0.056 | relative viability (G401; 0.00457 µM): 1.02 ± 0.047 | relative viability (G401; 0.01372 µM): 1.02 ± 0.015 | relative viability (G401; 0.04115 µM): 1.03 ± 0.0084 | relative viability (G401; 0.1235 µM): 1.035 ± 0.003 | relative viability (G401; 0.3704 µM): 1.01 ± 0.036 | relative viability (G401; 1.111 µM): 0.957 ± 0.065 | relative viability (G401; 3.333 µM): 0.787 ± 0.014 | relative viability (G401; 10 µM): 0.625 ± 0.051 | relative viability (HT1080; 0.00017 µM): 1.09 ± 0.018 | relative viability (HT1080; 0.00051 µM): 1.05 ± 0.019 | relative viability (HT1080; 0.00152 µM): 1.046 ± 0.0038 | relative viability (HT1080; 0.00457 µM): 1.08 ± 0.012 | relative viability (HT1080; 0.01372 µM): 1.07 ± 0.067 | relative viability (HT1080; 0.04115 µM): 1.11 ± 0.045 | relative viability (HT1080; 0.1235 µM): 1.09 ± 0.014 | relative viability (HT1080; 0.3704 µM): 1.09 ± 0.07 | relative viability (HT1080; 1.111 µM): 1.04 ± 0.052 | relative viability (HT1080; 3.333 µM): 0.9439 ± 0.0047 | relative viability (HT1080; 10 µM): 0.491 ± 0.046 | relative viability (KHOS-240S; 0.00017 µM): 1.068 ± 0.01 | relative viability (KHOS-240S; 0.00051 µM): 1.07 ± 0.022 | relative viability (KHOS-240S; 0.00152 µM): 1.06 ± 0.02 | relative viability (KHOS-240S; 0.00457 µM): 1.08 ± 0.034 | relative viability (KHOS-240S; 0.01372 µM): 1.06 ± 0.033 | relative viability (KHOS-240S; 0.04115 µM): 1.06 ± 0.031 | relative viability (KHOS-240S; 0.1235 µM): 1.06 ± 0.033 | relative viability (KHOS-240S; 0.3704 µM): 1.03 ± 0.046 | relative viability (KHOS-240S; 1.111 µM): 0.967 ± 0.037 | relative viability (KHOS-240S; 3.333 µM): 0.792 ± 0.02 | relative viability (KHOS-240S; 10 µM): 0.547 ± 0.048 | relative viability (MES-SA; 0.00017 µM): 0.948 ± 0.0089 | relative viability (MES-SA; 0.00051 µM): 0.952 ± 0.026 | relative viability (MES-SA; 0.00152 µM): 0.954 ± 0.026 | relative viability (MES-SA; 0.00457 µM): 0.955 ± 0.037 | relative viability (MES-SA; 0.01372 µM): 0.961 ± 0.016 | relative viability (MES-SA; 0.04115 µM): 0.974 ± 0.031 | relative viability (MES-SA; 0.1235 µM): 0.985 ± 0.024 | relative viability (MES-SA; 0.3704 µM): 0.992 ± 0.033 | relative viability (MES-SA; 1.111 µM): 0.956 ± 0.012 | relative viability (MES-SA; 3.333 µM): 0.792 ± 0.025 | relative viability (MES-SA; 10 µM): 0.493 ± 0.012 | relative viability (RD-ES; 0.00017 µM): 0.9742 ± 0.0083 | relative viability (RD-ES; 0.00051 µM): 0.997 ± 0.016 | relative viability (RD-ES; 0.00152 µM): 0.98 ± 0.022 | relative viability (RD-ES; 0.00457 µM): 0.991 ± 0.039 | relative viability (RD-ES; 0.01372 µM): 1 ± 0.015 | relative viability (RD-ES; 0.04115 µM): 0.981 ± 0.036 | relative viability (RD-ES; 0.1235 µM): 0.992 ± 0.041 | relative viability (RD-ES; 0.3704 µM): 1.04 ± 0.014 | relative viability (RD-ES; 1.111 µM): 1.02 ± 0.011 | relative viability (RD-ES; 3.333 µM): 0.954 ± 0.025 | relative viability (RD-ES; 10 µM): 0.822 ± 0.044 | relative viability (RD; 0.00017 µM): 1.08 ± 0.036 | relative viability (RD; 0.00051 µM): 1.1 ± 0.061 | relative viability (RD; 0.00152 µM): 1.09 ± 0.035 | relative viability (RD; 0.00457 µM): 1.13 ± 0.051 | relative viability (RD; 0.01372 µM): 1.11 ± 0.069 | relative viability (RD; 0.04115 µM): 1.13 ± 0.05 | relative viability (RD; 0.1235 µM): 1.11 ± 0.04 | relative viability (RD; 0.3704 µM): 1.039 ± 0.01 | relative viability (RD; 1.111 µM): 0.947 ± 0.065 | relative viability (RD; 3.333 µM): 0.787 ± 0.026 | relative viability (RD; 10 µM): 0.5251 ± 0.005 | relative viability (SK-ES-1; 0.00017 µM): 1.01 ± 0.058 | relative viability (SK-ES-1; 0.00051 µM): 1.04 ± 0.072 | relative viability (SK-ES-1; 0.00152 µM): 1.068 ± 0.0054 | relative viability (SK-ES-1; 0.00457 µM): 1.05 ± 0.012 | relative viability (SK-ES-1; 0.01372 µM): 1.09 ± 0.037 | relative viability (SK-ES-1; 0.04115 µM): 1.07 ± 0.044 | relative viability (SK-ES-1; 0.1235 µM): 1.06 ± 0.084 | relative viability (SK-ES-1; 0.3704 µM): 1.08 ± 0.037 | relative viability (SK-ES-1; 1.111 µM): 1.04 ± 0.082 | relative viability (SK-ES-1; 3.333 µM): 0.867 ± 0.017 | relative viability (SK-ES-1; 10 µM): 0.572 ± 0.015 | relative viability (SK-LMS-1; 0.00017 µM): 1.04 ± 0.038 | relative viability (SK-LMS-1; 0.00051 µM): 1.06 ± 0.014 | relative viability (SK-LMS-1; 0.00152 µM): 1.09 ± 0.038 | relative viability (SK-LMS-1; 0.00457 µM): 1.08 ± 0.048 | relative viability (SK-LMS-1; 0.01372 µM): 1.1 ± 0.044 | relative viability (SK-LMS-1; 0.04115 µM): 1.11 ± 0.046 | relative viability (SK-LMS-1; 0.1235 µM): 1.14 ± 0.085 | relative viability (SK-LMS-1; 0.3704 µM): 1.1 ± 0.036 | relative viability (SK-LMS-1; 1.111 µM): 0.876 ± 0.024 | relative viability (SK-LMS-1; 3.333 µM): 0.6129 ± 0.0051 | relative viability (SK-LMS-1; 10 µM): 0.438 ± 0.018 | relative viability (SW1353; 0.00017 µM): 0.989 ± 0.036 | relative viability (SW1353; 0.00051 µM): 0.95 ± 0.045 | relative viability (SW1353; 0.00152 µM): 0.989 ± 0.028 | relative viability (SW1353; 0.00457 µM): 1.01 ± 0.047 | relative viability (SW1353; 0.01372 µM): 1.06 ± 0.038 | relative viability (SW1353; 0.04115 µM): 1.06 ± 0.06 | relative viability (SW1353; 0.1235 µM): 1.06 ± 0.045 | relative viability (SW1353; 0.3704 µM): 1.08 ± 0.018 | relative viability (SW1353; 1.111 µM): 1.03 ± 0.024 | relative viability (SW1353; 3.333 µM): 0.861 ± 0.033 | relative viability (SW1353; 10 µM): 0.545 ± 0.016 | relative viability (SW982; 0.00017 µM): 1.04 ± 0.051 | relative viability (SW982; 0.00051 µM): 1.03 ± 0.027 | relative viability (SW982; 0.00152 µM): 1.055 ± 0.0083 | relative viability (SW982; 0.00457 µM): 1.05 ± 0.019 | relative viability (SW982; 0.01372 µM): 1.02 ± 0.058 | relative viability (SW982; 0.04115 µM): 1.02 ± 0.028 | relative viability (SW982; 0.1235 µM): 1.05 ± 0.051 | relative viability (SW982; 0.3704 µM): 1.03 ± 0.036 | relative viability (SW982; 1.111 µM): 0.897 ± 0.096 | relative viability (SW982; 3.333 µM): 0.757 ± 0.092 | relative viability (SW982; 10 µM): 0.556 ± 0.066 | relative viability (SYO-1; 0.00017 µM): 0.947 ± 0.028 | relative viability (SYO-1; 0.00051 µM): 0.941 ± 0.0096 | relative viability (SYO-1; 0.00152 µM): 0.9369 ± 0.0049 | relative viability (SYO-1; 0.00457 µM): 0.947 ± 0.019 | relative viability (SYO-1; 0.01372 µM): 0.937 ± 0.011 | relative viability (SYO-1; 0.04115 µM): 0.91 ± 0.015 | relative viability (SYO-1; 0.1235 µM): 0.905 ± 0.053 | relative viability (SYO-1; 0.3704 µM): 0.823 ± 0.063 | relative viability (SYO-1; 1.111 µM): 0.666 ± 0.022 | relative viability (SYO-1; 3.333 µM): 0.555 ± 0.014 | relative viability (SYO-1; 10 µM): 0.437 ± 0.018 | relative viability (VA-ES-BJ; 0.00017 µM): 1.037 ± 0.0073 | relative viability (VA-ES-BJ; 0.00051 µM): 1.039 ± 0.0061 | relative viability (VA-ES-BJ; 0.00152 µM): 1.046 ± 0.0068 | relative viability (VA-ES-BJ; 0.00457 µM): 1.03 ± 0.035 | relative viability (VA-ES-BJ; 0.01372 µM): 1.03 ± 0.03 | relative viability (VA-ES-BJ; 0.04115 µM): 1.04 ± 0.043 | relative viability (VA-ES-BJ; 0.1235 µM): 1.09 ± 0.028 | relative viability (VA-ES-BJ; 0.3704 µM): 1.108 ± 0.0046 | relative viability (VA-ES-BJ; 1.111 µM): 1.11 ± 0.022 | relative viability (VA-ES-BJ; 3.333 µM): 1.09 ± 0.041 | relative viability (VA-ES-BJ; 10 µM): 0.798 ± 0.08
